Experimental data taken from US7544438B2, “Electron mediator, electron mediator immobilized electrode, and biofuel cell using the electrode” (Daiichi Pure Chemicals Co., Ltd, priority 2003, dated 2009).

system: not listed separately; test: Cyclic voltammetry (CV), redox potential of mediator molecule; assay type: physicochemical; conditions: 0.09 mM mediator in Tris buffer solution (pH 8.5); glassy carbon electrode; Ag|AgCl (saturated KCl) reference; 5 mV/s
Text: [Cyclic Voltammetry (CV), Redox Potential of Mediator Molecule]
The obtained voltammogram represents the potential on an abscissa axis and the current on an ordinate axis. The CV involves relatively easy experiments and sharply reflects not only equilibrium parameters such as the redox potential or diffusion information but also kinetic parameters of an electrode reaction or of a chemical reaction in solution. Thus, the CV is a method of electrochemical measurement allowing an intuitive grasp of the electrode reaction.
The CV for mediator evaluation involves measuring in an electrolytic solution consisting of the buffer with various mediators, diaphorase, and NADH added.
A potentiostat mode of Hokuto Denko HZ-3000 was used. A glassy carbon electrode (GDE, electrode area of about 0.083 cm^2) was used as a working electrode. The GDE was polished with an aluminum powder of 0.05 μm and subjected to ultrasonic cleaning in deionized water before every measurement. A three electrode cell was used, and a Pt electrode and an Ag|AgCl (saturated KCl) electrode were used as a counter electrode and a reference electrode, respectively for the measurement. A potential was changed at a rate of 5 mV/s. A measurement sample was subjected to sufficient bubbling with N2 gas before the measurement to remove dissolved oxygen, and the N2 gas overflowed during the measurement. All measurements began from an open circuit potential.
Cyclic voltammograms with (a) in FIGS. 5A to 5F are measurement of 0.09 mM solutions of the various mediators prepared using a Tris buffer solution (pH 8.5).

Row | Structure (SMILES) | redox formal potentials (E^0M′) approximated at middle points of oxidation peaks and reduction peaks [V]
1 | CC1=CC(=O)c2ccccc2C1=O [VK3, 2-methyl-1,4-naphthoquinone] | −0.28
2 | OC[c-]1cccc1.[Fe+2].c1cc[cH-]c1 [FMA, ferrocene methanol] | 0.23
3 | CC1=C(CCCC(=O)O)C(=O)c2ccccc2C1=O [CPVK3, 2-(3-carboxypropyl)-3-methyl-1,4-naphthoquinone] | −0.32
4 | CC1=C(CCCC(=O)NCCN)C(=O)c2ccccc2C1=O [AEACPVK3, 2-{3-[N-(2-aminoethyl)aminocarbonyl]propyl}-3-methyl-1,4-naphthoquinone] | −0.32
5 | O=C1c2ccccc2C(=O)c2cc(S(=O)(=O)[O-])ccc21.[Na+] [AQS, sodium anthraquinone-2-sulfonate] | −0.49
6 | CC1=C(CCCN)C(=O)c2ccccc2C1=O [APVK3, 2-(3-aminopropyl)-3-methyl-1,4-naphthoquinone] | −0.32

system: Dp (DIAPHORASE I, [EC 1.6.99.-]); test: Reaction kinetic analysis between diaphorase (Dp) and mediator by CV; assay type: biochemical, Bacillus stearothermophilus; conditions: comparison of FMA with AQS, FIG. 6
Text: A technique of reaction kinetic analysis between an enzyme and a mediator molecule using CV will be described referring to a document (Kazuyoshi Takagi, Kenji Kano, Tokuji Ikeda, J. Electroanal. Chem., 1988, 445, 211-219). Dp catalyses an oxidation reaction of NADH in the presence of an appropriate mediator (Mox) as represented by the following equation (4).
An NADH oxidation rate (νE, ox) may be represented by the following equation (5) on an assumption that an enzyme reaction follows a ping-pong mechanism.
In addition, vE, ox of equation (5) can be approximated as the following equation (6) when Mox concentration is negligibly small ([Mox]<<KM, ox) in the vicinity of the electrode surface.
From the above, kcat, ox/KM, ox clearly represents a reaction rate constant between DPred and Mox. Further, steady state limiting current of catalyst (Is, ox) observed at a more positive potential from the redox potential of the mediator molecule can be represented by the following equation (7).
The reaction rate constant kcat, ox/KM, ox can be estimated from the measured limiting current value using the above equation (7).
On the other hand, cyclic voltammograms with (b) in FIGS. 5A to 5F are measurement results of the above mediator solutions with 0.11 μM of Dp ([…], [EC 1.6.99.-], from Bacillus stearothermophilus, available from Unitika Ltd.) and 4.8 mM of NADH added. […]

Row | Structure (SMILES) | reaction rate constant larger than that of the AQS by [digit]
7 | OC[c-]1cccc1.[Fe+2].c1cc[cH-]c1 [FMA, ferrocene methanol] | ≥ 1
